Consider 28 compounds from patent publication US8637485B2, “5′,-substituted adenosynes preparation thereof and use as inhibitors of S-adenosylmethionine decarboxylase” (Southern Research Institute, priority 2007, dated 2014).

SMILES strings stand for the structures. pIC50: −log10 of the molar value. Structures can show the parent of a compound that is named as a salt.

In one assay the target is T1, hAdoMetDC (Homo sapiens, UniProt P17707).
T1 construct: the enzyme undergoes autoprocessing to give the α and the β subunits; made in house; host or cells: E. coli JM109 (pQE30-based plasmid)
T1 sequence (P17707 1-67 limits assumed): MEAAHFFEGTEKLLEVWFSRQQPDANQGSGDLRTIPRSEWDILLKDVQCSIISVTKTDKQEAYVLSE
T1 sequence (P17707 68-328 limits assumed): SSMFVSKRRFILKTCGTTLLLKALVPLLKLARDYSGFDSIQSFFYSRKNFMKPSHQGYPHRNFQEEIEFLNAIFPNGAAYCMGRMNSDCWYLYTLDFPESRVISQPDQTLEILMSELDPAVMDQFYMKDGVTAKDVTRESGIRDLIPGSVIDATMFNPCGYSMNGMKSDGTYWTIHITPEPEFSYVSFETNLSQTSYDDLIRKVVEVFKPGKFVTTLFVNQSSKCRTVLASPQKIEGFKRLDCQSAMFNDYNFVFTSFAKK
Nature of the assay: Assay of AdoMetDC activity (release of 14CO2 from S-adenosyl-L-[carboxy-14C]methionine) and determination of inhibitor IC50 values. Format: biochemical. The note with it: for pIC50: at least 5 concentrations, curve fit of inhibitor concentration versus % inhibition of hAdoMetDC; for inhibition / inhibition at 100 µM: at 100 μM. The protocol: Assay of AdoMetDC Activity and Determination of Inhibitor IC50 Values
(§1) AdoMetDC was assayed by measuring the release of ^14CO2 from S-adenosyl-L-[carboxy-^14C]methionine (Amersham Pharmacia Biotech, ˜60 mCi/mmol) (36). […] For determination of the abilities of compounds to inhibit AdoMetDC, the enzyme activity was determined in the presence of no inhibitor and at least 5 concentrations of each potential inhibitor. The IC50 values were determined from curve fitting to plots of the inhibitor concentration versus the % inhibition of AdoMetDC.
as §1

A further assay deals with T2, AdoMetDC (Homo sapiens, UniProt P17707).
T2 sequence (P17707 1-334): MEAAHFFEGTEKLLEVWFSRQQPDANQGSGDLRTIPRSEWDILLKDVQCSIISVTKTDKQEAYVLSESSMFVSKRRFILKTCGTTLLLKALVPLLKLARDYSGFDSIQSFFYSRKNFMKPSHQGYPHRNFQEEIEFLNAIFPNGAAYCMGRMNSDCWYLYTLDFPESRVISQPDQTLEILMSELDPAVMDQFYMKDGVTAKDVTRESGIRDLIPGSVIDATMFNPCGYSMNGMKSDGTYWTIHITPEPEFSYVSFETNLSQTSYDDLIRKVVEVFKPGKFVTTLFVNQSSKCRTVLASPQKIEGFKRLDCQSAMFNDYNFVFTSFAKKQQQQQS
The note with it: previously reported; cited from earlier work.

For `Cc1nc2c(N)ncnc2n1[C@@H]1O[C@H](CN(C)CCN)[C@@H](O)[C@H]1O` [Compound 14f, 5′-[(2-Aminoethyl)methylamino]-5′-deoxy-8-methyladenosine], the pIC50 at hAdoMetDC was 4.06.

On to `Cc1nc2c(N)ncnc2n1[C@@H]1O[C@H](CN(C)CCC(=O)NN)[C@@H](O)[C@H]1O` [Compound 13k, 5′-Deoxy-5′-[(2-hydrazinocarbonylethyl)methylamino]-8-methyladenosine sulfate (2:1 salt)], for which, at hAdoMetDC, the pIC50 was 6.77.

As to `CN(CCON)C[C@H]1O[C@@H](n2c(-c3ccccc3)nc3c(N)ncnc32)[C@H](O)[C@@H]1O.CN(CCON)C[C@H]1O[C@@H](n2c(-c3ccccc3)nc3c(N)ncnc32)[C@H](O)[C@@H]1O.O=S(=O)(O)O` [Compound 7c, 5′-[(2-Aminooxyethyl)methylamino]-5′-deoxy-8-phenyladenosine sulfate (2:1 salt)], the “inhibition” value against hAdoMetDC is under 5% inhibition at 100 μM.

As to `CNCCCNC[C@H]1O[C@@H](n2c(NC)nc3c(N)ncnc32)[C@H](O)[C@@H]1O.O=S(=O)(O)O` [Compound 15a, 5′-deoxy-8-(methylamino)-5′(3-methylaminopropylamino)adenosine sulfate (2.4:1 salt)], the “inhibition” value against hAdoMetDC is under 5% inhibition at 100 μM.

Turning to `CN(CCCN)C[C@H]1O[C@@H](n2cnc3c(N)ncnc32)[C@H](O)[C@@H]1O` [Compound 14d, 5′-[(3-Aminopropyl)methylamino]-5′-deoxyadenosine sulfate (2:1 salt)], on hAdoMetDC, the negative logarithm of the IC50 (pIC50) was 3.30.

At hAdoMetDC, `Cc1nc2c(N)ncnc2n1[C@@H]1O[C@H](CN(C)CC(=O)NN)[C@@H](O)[C@H]1O` [Compound 13m, 5′-Deoxy-5′-[(hydrazinocarbonylmethyl)methylamino]-8-methyladenosine] showed a negative-log IC50 (pIC50) of 4.51.

Compound `CN(CCCCON)C[C@H]1O[C@@H](n2c(=O)[nH]c3c(N)ncnc32)[C@H](O)[C@@H]1O` [Compound 9c, 5′-[(4-Aminooxybutyl)methylamino]-5′-deoxy-8-oxoadenosine sulfate (1.9:1 salt)] gave a pIC50 against hAdoMetDC of 7.96.

With `CN(CCC(N)=O)C[C@H]1O[C@@H](n2cnc3c(N)ncnc32)[C@H](O)[C@@H]1O` [Compound 13j, 5′-[(2-Carboxamidoethyl)methylamino]-5′-deoxyadenosine sulfate (1.9:1 salt)], at hAdoMetDC, the negative logarithm of the IC50 (pIC50) was 5.15.

In turn, `CCc1nc2c(N)ncnc2n1[C@@H]1O[C@H](CN(C)CCC(N)=O)[C@@H](O)[C@H]1O` [Compound 13e, 5′-[(2-Carboxamidoethyl)methyamino]-5′-deoxy-8-ethyladenosine sulfate (1.1:1 salt)] showed a pIC50 against hAdoMetDC of 5.40.

On hAdoMetDC, `CNCCNC[C@H]1O[C@@H](n2c(C)nc3c(N)ncnc32)[C@H](O)[C@@H]1O` [Compound 15d, 5′-deoxy-8-methyl-5′-(2-methylaminoethylamino)adenosine] displayed an inhibition at 100 µM of under 5%.

With `Cc1nc2c(N)ncnc2n1[C@@H]1O[C@H](CN(C)CCON)[C@@H](O)[C@H]1O` [Compound 7a, 5′-[(2-Aminooxyethyl)methylamino]-5′-deoxy-8-methyladenosine sulfate (2.2:1 salt)], on hAdoMetDC (versus un-substituted parent compound), the “increase in potency when an adenine 8-methyl substituent was added” value turned out to be 8 fold.

At hAdoMetDC, `CN(CCNC(=N)N)C[C@H]1O[C@@H](n2cnc3c(N)ncnc32)[C@H](O)[C@@H]1O` [Compound 18a, 5′-Deoxy 5′-[(2-guanidinoethyl)methylamino]adenosine] displayed an inhibition at 100 µM of under 5%.

In turn, `CN(CCC(=O)NN)C[C@H]1O[C@@H](n2cnc3c(N)ncnc32)[C@H](O)[C@@H]1O` [Compound 13l, 5′-Deoxy-5′-[(2-hydrazinocarbonylethyl)methylamino]-adenosine sulfate (2:1 salt)] gave a negative-log IC50 (pIC50) against hAdoMetDC of 5.82.

Take `CCc1nc2c(N)ncnc2n1[C@@H]1O[C@H](CN(C)CCCN)[C@@H](O)[C@H]1O` [Compound 17d, 5′-[(3-Aminopropyl)methylamino]-5′-deoxy-8-ethyladenosine sulfate (2.5:1 salt)]: the negative logarithm of the IC50 (pIC50) at hAdoMetDC is 3.38.

At hAdoMetDC, `CNc1nc2c(N)ncnc2n1[C@@H]1O[C@H](CN(C)CCON)[C@@H](O)[C@H]1O` [Compound 7b, 5′-[(2-Aminooxyethyl)methylamino]-5′-deoxy-8-(methylamino)adenosine sulfate (2.1:1 salt)] showed a negative-log IC50 (pIC50) of 7.07.

At hAdoMetDC, `CN(CCCCON)C[C@H]1O[C@@H](n2cnc3c(N)ncnc32)[C@H](O)[C@@H]1O` [Compound 9f, 5′-[(4-Aminooxybutyl)methylamino]-5′-deoxyadenosine sulfate (2:1 salt)] gave a pIC50 of 7.74.

In the case of `CN(CCCN)C[C@H]1O[C@@H](n2c(-c3ccccc3)nc3c(N)ncnc32)[C@H](O)[C@@H]1O.O=S(=O)(O)O` [Compound 14b, 5′-[(3-Aminopropyl)methylamino]-5′-deoxy-8-phenyladenosine sulfate (2.2:1 salt)], at hAdoMetDC, the “inhibition” value is on record as under 5% inhibition at 100 μM.

With `CNCCNC[C@H]1O[C@@H](n2cnc3c(N)ncnc32)[C@H](O)[C@@H]1O` [Compound 15c, 5′-deoxy-5′-(2-methylaminoethylamino)adenosine], at hAdoMetDC, the inhibition at 100 µM was under 5%.

As for `CN(CCCCON)C[C@H]1O[C@@H](n2c(-c3ccccc3)nc3c(N)ncnc32)[C@H](O)[C@@H]1O.O=S(=O)(O)O` [Compound 9b, 5′-[(4-Aminooxybutyl)methylamino]-5′-deoxy-8-phenyladenosine sulfate (1.75:1 salt)], at hAdoMetDC, the “inhibition” value was under 5% inhibition at 100 μM.

Take `Cc1nc2c(N)ncnc2n1[C@@H]1O[C@H](CN(C)CC(N)=O)[C@@H](O)[C@H]1O.O=S(=O)(O)O` [Compound 13f, 5′-[(Carboxamidomethyl)methylamino]-5′-deoxy-8-methyladenosine sulfate (1.45:1 salt)]: the “inhibition” value on hAdoMetDC is given as under 5% inhibition at 100 μM.

Take `C[S+](C)C[C@H]1O[C@@H](n2cnc3c(N)ncnc32)[C@H](O)[C@@H]1O` [Compound 21d, 5′-Deoxy-5′-dimethylsulfonioadenosine chloride]: the Ki entry at AdoMetDC is on record as “in the μM range”.

`CN(CCN)C[C@H]1O[C@@H](n2cnc3c(N)ncnc32)[C@H](O)[C@@H]1O` [Compound 14e, 5′-[(2-Aminoethyl)methylamino]-5′-deoxyadenosine] had an inhibition at 100 µM at hAdoMetDC of under 5%.

For the compound `CNCCCNC[C@H]1O[C@@H](n2c(-c3ccccc3)nc3c(N)ncnc32)[C@H](O)[C@@H]1O.O=S(=O)(O)O` [Compound 15b, 5′-deoxy-5′-(3-methylaminopropylamino)-8-phenyladenosine sulfate (1.7:1 salt)], the “inhibition” value against hAdoMetDC is under 5% inhibition at 100 μM.

`CNc1nc2c(N)ncnc2n1[C@@H]1O[C@H](CN(C)CCCN)[C@@H](O)[C@H]1O` [Compound 14a, 5′-[(3-Aminopropyl)methylamino]-5′-deoxy-8-(methylamino)adenosine sulfate (2.4:1 salt)] had a pIC50 at hAdoMetDC of 3.36.

The compound `CN(CCC(=N)NO)C[C@H]1O[C@@H](n2cnc3c(N)ncnc32)[C@H](O)[C@@H]1O` [Compound 18c, 5′-Deoxy-5′-[(2-hydroxyamidinoethyl)methylamino]adenosine] gave a negative-log IC50 (pIC50) on hAdoMetDC of 3.80.

Consider `Cc1nc2c(N)ncnc2n1[C@@H]1O[C@H](CN(C)CCCCON)[C@@H](O)[C@H]1O` [Compound 9d, 5′-[(4-Aminooxybutyl)methylamino]-5′-deoxy-8-methyladenosine sulfate (1.9:1 salt)], for which, on hAdoMetDC, the pIC50 was 8.30. Moreover, the “reduction in the IC50 value when an 8-methyl substituent was added to the adenine ring” value at hAdoMetDC (versus 8-unsubstituted parent compound) is 3.4 fold.

In turn, `CN(C)C[C@H]1O[C@@H](n2cnc3c(N)ncnc32)[C@H](O)[C@@H]1O` [Compound 19b, 5′-Deoxy-5′-(N,N-dimethylamino)adenosine] had a negative-log IC50 (pIC50) against hAdoMetDC of 5.05.

On hAdoMetDC, `CNc1nc2c(N)ncnc2n1[C@@H]1O[C@H](CN(C)CCCCON)[C@@H](O)[C@H]1O` [Compound 9a, 5′-[(4-Aminooxybutyl)methylamino]-5′-deoxy-8-(methylamino)adenosine sulfate (0.4:1 salt)] had a pIC50 of 7.31.
